Results as given in PubChem BioAssay AID624258 (Broad Institute, 2012).
Activity calls are given as the source filed them. The rule behind the calls is not given here.

These molecules were tested on S. cerevisiae SKN7-toxicity growth rescue, plate reader (assay: Yeast SKN7 toxicity growth rescue counterscreen, Saccharomyces cerevisiae, plate reader, dose confirmatory (AID 624258);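 note: growth read after three days of incubation at 30 °C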).
CCCCC(=O)NC(c1ccc(N(C)C)cc1)c1ccc2cccnc2c1O (stereo unspecified) was tested, and the AC40 was 0.754 µM. Molecule Cc1ccccc1CSCCNC(=O)COc1ccc(Cl)cc1 has an AC40 of 7.18 µM. COc1ccc(CSCC(=O)Nc2ccc(S(=O)(=O)N3CCCCCC3)cc2)cc1 was tested, and the AC40 was 6.93 µM. In the case of Cc1cc2[nH]c3c4ccccc4nc(C)c3c2cc1C, the AC40 is reported as 11.2 µM. Molecule Cc1ccc(C)c(C(=O)O/N=C(\N)c2ccc(Br)cc2)c1 has an AC40 of 3.86 µM. Work on O=C1c2ccccc2NC(c2ccc(-c3ccc(F)cc3)o2)N1O (stereo unspecified) yielded an AC40 of 14 µM. Molecule O=C(O)c1ccc(N/N=C/C=C/c2ccccc2)cc1 has an AC40 of 1.11 µM. For CN1CCN(C2CCN(c3ccc(Nc4nnc(Cl)c(Nc5ccccc5S(C)(=O)=O)n4)c(OC(CF)CF)c3)CC2)CC1, the AC40 was 15.1 µM. Cc1ccnc(NC(c2ccsc2)c2ccc3ccc(C)nc3c2O)c1 (stereo unspecified) was tested, and the AC40 was 6.7 µM. In the case of O=c1c(O)cccc2cc(O)c(O)c(O)c12, the AC40 is reported as 2.27 µM. Molecule O=S(=O)(c1cc(C(F)(F)F)ccc1Cl)N1CCN(c2ncnc3ccccc23)CC1 has an AC40 of 17.1 µM. Molecule Cc1ccccc1NC(=O)CSc1ccc(-c2ccccn2)nn1 has an AC40 of 7.17 µM. For CC1=CC(=O)C(C(C)C)=C/C1=N/OC(=O)c1cccc([N+](=O)[O-])c1, the AC40 was 1.05 µM. In the case of COC(=O)c1ccc(SC2CCCCC2)c([N+](=O)[O-])c1, the AC40 is reported as 1.47 µM. With C=CS(=O)(=O)c1ccc(Oc2ccc(S(=O)(=O)C=C)cc2)cc1 the AC40 was 7.95 µM. O=[N+]([O-])c1ccc(O)c(/C=N/Nc2ccccn2)c1 showed an AC40 of 1.42 µM. Molecule Cc1ccc(C(C[N+](=O)[O-])c2c(N)n(C)c(=O)n(C)c2=O)cc1 (stereo unspecified) has an AC40 of 4.96 µM. O=C(CSc1ccc(-c2ccccn2)nn1)NC1CCCC1 gave an AC40 of 7.77 µM. Cc1cc([N+](=O)[O-])c(NC2CCCCC2)c([N+](=O)[O-])c1 showed an AC40 of 10.1 µM. COc1cc(C(=O)ON=C2C3CC4CC(C3)CC2C4)cc(OC)c1OC was tested, and the AC40 was 1.79 µM. In the case of Cc1ccc(C2(c3ccc(C)cc3)CC2C(=O)Nc2ccc([N+](=O)[O-])cc2O)cc1 (stereo unspecified), the AC40 is reported as 6.78 µM. For O=Cc1cc(N=Nc2ccccc2Cl)ccc1O, the AC40 was 0.446 µM. CC1=CC(=O)C=C(C)C1=NOS(=O)(=O)c1ccccc1 gave an AC40 of 0.454 µM. COc1ccc(CNC(=O)c2c(C)oc3c2C(=O)c2ccccc2C3=O)cc1 showed an AC40 of 8.26 µM. With O=C(O)c1ccc(N/N=C/C2=C(N3CCOCC3)C(=C\c3ccccc3)/CC2)cc1 the AC40 was 5.01 µM. O=C(Nc1cccnc1)c1ccc2ccccc2c1O showed an AC40 of 0.908 µM. Cc1ccc(-c2cc(-c3ccc(C)cc3)[n+](-c3ccccc3)c(-c3ccc(C)cc3)c2)cc1 showed an AC40 of 4.13 µM. O=[N+]([O-])c1ccc(N=Nc2ncc[nH]2)cc1 was tested, and the AC40 was 6.08 µM. Molecule COc1ccc(S(=O)(=O)N(C(=O)c2ccncc2)c2ccc(OC(=O)c3ccncc3)cc2)cc1 has an AC40 of 1.88 µM. Work on Cc1ccc(NC2=C(NC(=O)c3ccccc3)C(=O)c3ccccc3C2=O)cc1Cl yielded an AC40 of 4.15 µM. For O=C(O)c1cccc(NN=C2c3ccccc3-c3ccccc32)c1, the AC40 was 3.11 µM. Molecule CCC(=O)NC(c1cc(Cl)c2cccnc2c1O)C(C)C (stereo unspecified) has an AC40 of 3.15 µM. Work on N#C/C(=C\c1cccnc1)c1ccc(Br)cc1 yielded an AC40 of 15.9 µM. In the case of CC1CC(C)CN(C(=O)c2cccc(S(=O)(=O)Nc3cc(C(F)(F)F)ccc3Cl)c2)C1 (stereo unspecified), the AC40 is reported as 16.8 µM. C=CCN(CC=C)C(=S)NC(=O)c1ccc(OC)c(Br)c1 showed an AC40 of 0.652 µM. Work on CCOC(=O)c1cccc2c1-c1ccccc1/C2=N/O yielded an AC40 of 1.91 µM. Work on O=C1/C(=C/c2cccs2)SC(=S)N1NS(=O)(=O)c1ccccc1 yielded an AC40 of 3.71 µM. Molecule Cc1cccc(N2C(=O)C(Oc3ccc(Cl)cc3Cl)C2C=O)c1C (stereo unspecified) has an AC40 of 1.98 µM. Molecule CC(NCCN(C)C)C1CCC2C3CCc4cc(O)ccc4C3CCC12C (stereo unspecified) has an AC40 of 0.126 µM. COc1ccc2cnn(CCOc3cc(C)ccc3C(C)C)c(=O)c2c1OC was tested, and the AC40 was 4.15 µM. Molecule CNC(=S)Nc1ccc(C23CC4CC(CC(C4)C2)C3)cc1 has an AC40 of 2.47 µM. With COc1ccc(-c2cc(C(=O)N3CCN(c4ccccc4F)CC3)c3ccccc3n2)c(OC)c1 the AC40 was > 19.5 µM (inactive). Cc1cc2oc(=O)cc(-c3ccccc3)c2c(C)c1-c1ccc(CO)cc1 was tested, and the AC40 was 4.67 µM. Molecule COc1cccc(Oc2cncnc2-c2ccc(OC)cc2O)c1 has an AC40 of 18.9 µM. CCOC(=O)N1CCN(S(=O)(=O)c2ccc(C(=O)NNc3nc4ccc(Cl)cc4s3)cc2)CC1 was tested, and the AC40 was 6.89 µM. For COc1cc2c(cc1OC)C(C)N(C(=O)c1cc3c(=O)oc4ccc(C)cc4c3s1)CC2 (stereo unspecified), the AC40 was > 19.5 µM (inactive). Molecule O=C(NNC(=O)c1cc(Cl)ccc1O)c1ccc(NS(=O)(=O)c2cccs2)cc1 has an AC40 of 5.75 µM. Cc1ccc(S(=O)(=O)N/N=C\c2ccc([N+](=O)[O-])o2)cc1C was tested, and the AC40 was 10.5 µM. CCOC(=O)/C(=C/c1ccc(OC(=O)c2ccccc2)cc1)C(C)=O showed an AC40 of 1.83 µM. Cc1nn(CCC(N)=S)c2nc(-c3cccs3)cc(C(F)(F)F)c12 was tested, and the AC40 was 14.1 µM. In the case of O=C(N/N=C(\c1ccccc1)c1cccnc1)c1cccc(F)c1, the AC40 is reported as 1.12 µM.
